ChEMBL document CHEMBL1201862, “PubChem BioAssay data set” (2004)
One block for each compound: values may come before it. Activity calls are given as the source filed them.

Legend:
[1] = HepG2 cell cytotoxicity, dose response, cytotoxicity control, cherry-picks, set 5 (AID 1053118); type: functional, cell-based
[2] = HEK293 cell cytotoxicity, dose response, cytotoxicity control, cherry-picks, set 5 (AID 1053117); type: functional, cell-based
[3] = A549 cell cytotoxicity, dose response, cytotoxicity control, cherry-picks, 26 µM top dose (AID 1053119); type: functional, cell-based
[4] = Late stage assay provider results from the probe development effort to identify selective inhibitors of heat shock protein 90 (HSP90): Absorbance-based cell proliferation assay in SKBR3 cells.; type: functional; details: SK-BR-3
[5] = Late stage assay provider results from the probe development effort to identify selective inhibitors of heat shock protein 90 (HSP90): Absorbance-based cell proliferation assay in MCF7 cells.; type: functional
[6] = A375 melanoma cell viability loss, dose response, counter-screen for MITF inhibitor project, CellTiter-Glo luminescence, dry powder, set 4 (AID 624364); type: functional, cell-based; details: A-375;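 also: A375 melanoma cells are MITF independent so this is a counter screen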
[7] = A375 melanoma cell cytotoxicity, dose response, counter-screen for MITF inhibitor project, CellTiter-Glo luminescence, dry powder, set 2 (AID 624489); type: functional, cell-based; details: A-375;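 also: actives are compounds lowering A375 viability meaning general cytotoxicity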
[8] = molecular target: Potassium channel subfamily K member 9 (Homo sapiens, UniProt Q9NPC2); test: TASK3 (KCNK9) channel inhibitors, thallium flux, SAR follow-up, selectivity assay for TASK1 inhibitor project, cell-based, FluxOR thallium flux, concentration-response (AID 652211); type: functional;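 also: potency is for inhibitors of the channel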
[9] = molecular target: Potassium channel subfamily K member 3 (Homo sapiens, UniProt O14649); test: TASK1 (KCNK3) potassium channel inhibitors, SAR follow-up, CHO cells, FluxOR thallium flux (AID 652212); type: functional
[10] = molecular target: Endoplasmic reticulum aminopeptidase 1 (Homo sapiens, UniProt Q9NZ08); test: ERAP1 aminopeptidase inhibitors, dose response, biochemical, cherry-pick, set 2, plate reader (AID 743314)
[11] = NIH/3T3 fibroblast cytotoxicity, dose response, cytotoxicity control, cell-based, plate reader, dry powder, set 2 (AID 652280); type: functional; details: NIH3T3
[12] = T. cruzi growth inhibition in host cells, dose response, cell-based, plate reader, dry powder, set 2 (AID 652275); type: functional
[13] = T. cruzi intracellular amastigote growth inhibition, dose response, imaging, CA-I/72 strain, bovine embryo skeletal muscle, dry powder (AID 651885); type: functional, cell-based
[14] = HEK293T cytotoxicity, dose response, cytotoxicity control for miR-122 modulator project, cell-based, inhibitor set, cherry-pick, set 2 (AID 720697); type: functional
[15] = HEK293T cytotoxicity, dose response, cytotoxicity control for miR-122 modulator project, cell-based, activator set, cherry-pick (AID 720690); type: functional;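 also: HEK293T human cells scored for general mammalian cytotoxicity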
[16] = Luminescence-based cell-based high throughput dose response assay to identify activators of the DAF-12 from the parasite S. stercoralis (ssDAF-12).; type: functional
[17] = HEK293T cell cytotoxicity, dose response, cytotoxicity control, CellTiter-Glo luminescence, dry powder, set 20 (AID 1117293); type: functional, cell-based; details: HEK293
[18] = HepG2 cell cytotoxicity, dose response, cytotoxicity control, plate reader, dry powder, set 6 (AID 743311); type: functional, cell-based
[19] = A549 cell cytotoxicity, dose response, cytotoxicity control, plate reader, dry powder, set 6 (AID 743312); type: functional, cell-based
cells = details: HEK293
[20] = MITF Orthogonal Assay: SK-MEL-5 CTG Assay Measured in Cell-Based System Using Plate Reader - 2084-02_Inhibitor_Dose_DryPowder_Activity_Set7.; type: functional
[21] = MITF: Counter assay: A375 proliferation Measured in Cell-Based System Using Plate Reader - 2084-03_Inhibitor_Dose_DryPowder_Activity_Set8.; type: functional; details: A-375
[22] = TRPM1 promoter luciferase reporter signal decrease, dose response, MITF inhibitor project, cell-based, SK-MEL-5, dry powder, set 8 (AID 624430); type: functional

Sequence of Endoplasmic reticulum aminopeptidase 1 (Q9NZ08 whole entry): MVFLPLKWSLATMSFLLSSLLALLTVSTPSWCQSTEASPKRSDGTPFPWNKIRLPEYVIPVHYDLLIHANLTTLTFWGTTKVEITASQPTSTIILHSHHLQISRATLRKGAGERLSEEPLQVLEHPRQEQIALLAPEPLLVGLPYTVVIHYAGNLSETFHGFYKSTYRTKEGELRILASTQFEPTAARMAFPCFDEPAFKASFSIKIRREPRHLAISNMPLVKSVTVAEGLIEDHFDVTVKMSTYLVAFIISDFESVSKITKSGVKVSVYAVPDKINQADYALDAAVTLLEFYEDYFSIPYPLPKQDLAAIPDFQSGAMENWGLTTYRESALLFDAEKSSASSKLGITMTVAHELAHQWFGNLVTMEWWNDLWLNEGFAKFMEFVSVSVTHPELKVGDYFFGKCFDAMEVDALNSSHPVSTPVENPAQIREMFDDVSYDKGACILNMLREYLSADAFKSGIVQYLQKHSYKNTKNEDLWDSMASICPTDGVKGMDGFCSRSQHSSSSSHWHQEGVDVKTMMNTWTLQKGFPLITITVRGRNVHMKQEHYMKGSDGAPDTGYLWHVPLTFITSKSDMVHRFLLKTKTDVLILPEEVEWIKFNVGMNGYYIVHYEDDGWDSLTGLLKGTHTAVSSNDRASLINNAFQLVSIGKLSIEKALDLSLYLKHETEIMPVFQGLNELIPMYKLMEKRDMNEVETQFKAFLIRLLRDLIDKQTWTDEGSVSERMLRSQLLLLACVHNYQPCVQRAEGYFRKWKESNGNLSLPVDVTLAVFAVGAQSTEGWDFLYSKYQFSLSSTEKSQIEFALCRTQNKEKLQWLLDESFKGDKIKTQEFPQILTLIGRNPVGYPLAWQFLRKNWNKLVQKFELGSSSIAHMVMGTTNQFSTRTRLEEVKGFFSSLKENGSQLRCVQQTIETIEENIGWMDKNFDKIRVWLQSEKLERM
Sequence of Potassium channel subfamily K member 3 (O14649 whole entry): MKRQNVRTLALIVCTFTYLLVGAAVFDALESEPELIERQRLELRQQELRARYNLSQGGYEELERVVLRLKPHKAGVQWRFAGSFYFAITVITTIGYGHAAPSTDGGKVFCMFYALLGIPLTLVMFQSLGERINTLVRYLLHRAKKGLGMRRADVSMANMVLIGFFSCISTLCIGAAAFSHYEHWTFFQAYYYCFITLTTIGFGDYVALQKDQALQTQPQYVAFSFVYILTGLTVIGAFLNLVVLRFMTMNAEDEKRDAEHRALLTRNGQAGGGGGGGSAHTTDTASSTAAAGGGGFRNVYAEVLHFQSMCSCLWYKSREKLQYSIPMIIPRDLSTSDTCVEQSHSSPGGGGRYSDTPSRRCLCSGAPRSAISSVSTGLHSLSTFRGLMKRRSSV
Sequence of Potassium channel subfamily K member 9 (Q9NPC2 whole entry): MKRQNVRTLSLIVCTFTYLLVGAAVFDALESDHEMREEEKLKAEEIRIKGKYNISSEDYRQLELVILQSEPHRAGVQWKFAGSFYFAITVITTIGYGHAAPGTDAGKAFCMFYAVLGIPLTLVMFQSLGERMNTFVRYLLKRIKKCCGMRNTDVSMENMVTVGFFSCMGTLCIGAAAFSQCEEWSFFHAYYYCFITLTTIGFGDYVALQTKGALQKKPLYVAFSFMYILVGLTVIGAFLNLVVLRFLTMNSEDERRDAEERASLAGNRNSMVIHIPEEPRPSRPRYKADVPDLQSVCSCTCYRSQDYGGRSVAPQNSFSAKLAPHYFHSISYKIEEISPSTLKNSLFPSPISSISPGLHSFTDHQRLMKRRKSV

Structure (SMILES): CO[C@H]1CN(C)C(=O)c2cc(NC(=O)Nc3ccc(Cl)c(Cl)c3)ccc2OC[C@H](C)NC[C@@H]1C
AC50 [1]: 13 µM (active)
AC50 [2]: 12.8 µM (active)
AC50 [3]: 12.9 µM (active)

Structure (SMILES): O=C1OC(=O)/C(=C\NCCC2=CCCCC2)C=C1Br
IC50 [4]: 8 µM (active)
IC50 [5]: 3 µM (active)

Structure (SMILES): O=C(NC1=C(c2ccc(OC(F)(F)F)cc2)C(=O)c2ccccc2C1=O)c1ccccc1F
AC50 [6]: 34.4 µM (active)
AC50 [7]: 30.5 µM (active)

IC50 [8]: 2.33 µM (active)
IC50 [9]: 0.005 µM (active)
Structure (SMILES): CCOc1ccccc1NC(=O)c1cccc(NC(=O)c2cccc(OC)c2)c1

AC50 [10]: 11.3 µM (active)
Structure (SMILES): CCNC(=O)[C@H]1[C@H](CO)[C@H]2Cn3c(ccc(/C=C/c4ccccc4)c3=O)[C@@H]1N2

Structure (SMILES): C[C@@H]1CN([C@@H](C)CO)C(=O)c2cc(-c3cccnc3)cnc2O[C@H]1CN(C)Cc1ccc(Oc2ccccc2)cc1
AC50 [11]: 11.9 µM (active)
AC50 [12]: 1.95 µM (active)
IC50 [13]: > 20 µM (inactive)

Structure (SMILES): CN1C(=O)c2cc(NS(=O)(=O)c3cccc(F)c3)ccc2OC[C@@H]2O[C@@H](CC(=O)NCCN3CCCCC3)CC[C@H]21
AC50 [14]: 0.254 µM (active)
AC50 [15]: 26.1 µM (active)

Structure (SMILES): CC1=CC(c2ccccc2)=Nc2ccc(C)cc2N1
IC50 [16]: > 67.5 µM (inactive)

Structure (SMILES): N#Cc1ccc(S(=O)(=O)Nc2cc(C(F)(F)F)ccc2N2CCCCC2)cc1
AC50 [17]: 46.1 µM (active)

Structure (SMILES): Cc1cc2ncn(CCOc3ccc4c(c3)CCC4)c2cc1C
AC50 [18]: > 52 µM (inactive)
AC50 [19]: 24.1 µM (active)
AC50 (cells): 33 µM (active)

Structure (SMILES): O=C1C=C(Nc2cccc(C(F)(F)F)c2)C(=O)c2ccccc21
AC50 [20]: 0.463 µM (active)
AC50 [21]: > 70 µM (inactive)
AC50 [22]: > 70 µM (inactive)
